pEC50, pIC50: −log10 of the molar value. Like-named read-outs stand apart in the source and are kept apart here. Each block holds one compound with its values, some of them ahead of it.
Key:
[1] = molecular target: DHODH enzyme (Homo sapiens, UniProt Q02127); test: DHODH enzyme inhibitory activity in vitro (resazurin fluorescence); format: biochemical; details: 5 nM DHODH, 15 μM L-DHO, 80 μM Resazurin
From the text: The DHODH inhibitory activity of the compounds was detected by the following experimental method, and the experimental results are as shown in Table 1.
DHODH uses flavin mononucleotide FMN to catalyze the oxidation of dihydrooratic acid DHO to produce oratic acid, while the re-oxidation of FMN requires the participation of coenzyme CoQ. In the experiment of detecting the DHODH enzyme activity, CoQ was replaced by Resazurin dye as the final electron acceptor in the enzyme activity reaction. Resazurin solution is blue, and the resorufin generated after reduction has red fluorescence, and the fluorescence signal can be detected under the 535 nm of excitation wavelength and the 590 nm of emission wavelength. The components of the reaction buffer used in the experiment were 100 mM Hepes pH 7.0, 150 mM NaCl, 0.3% CHAPS, 0.5 mg/mL BSA, 0.1 μM FMN and 1% DMSO. The final concentration of DHODH enzyme in the reaction system was 5 nM, and the final concentration of substrate L-DHO was 15 μM, the final concentration of indicator Resazurin was 80 μM. The components of the reaction stop buffer were 100 mM Hepes pH 7.0 and 5 mM Orotate. The specific method was as follows: 2-fold final concentration of the DHODH enzyme solution was mixed with the compound, incubated at room temperature for 20 min, 2-fold final concentration of the substrate mixture solution of L-DHO and resazurin was added and reacted, incubated at room temperature away from light for 45 min. Then the reaction was stopped by adding 2-fold final concentration of the reaction stop buffer to the reaction system, and incubated at room temperature for 10 min, the fluorescence signal of the reaction system was detected with EnVision under the condition of Ex/Em=535/590 nm.

[2] = system: influenza virus A/Weiss/43 (H1N1); test: Influenza virus cytopathic effect (CPE) experiment in MDCK cells; format: cell-based; details: unidentified influenza virus, H1N1, 120 h, 5 days incubation, CCK8
[3] = system: human peripheral blood mononuclear cells; test: Proliferation inhibition of peripheral blood mononuclear cells (flow cytometry); format: cell-based; details: PBMC, PHA-M 5 μg/mL stimulation, 48 hours
Description: Flow cytometry was used to detect cell proliferation of human peripheral blood mononuclear cells.
• Cell complete medium: 445 mL of RPMI1640 cell culture+50 mL of fetal bovine serum+5 mL of double antibody • Buffer 1: 9.9 mL of phosphate buffer+0.1 mL of 10% bovine serum protein • Buffer 2: 10 mL of fetal bovine serum+490 mL of phosphate buffer 3.2 Cell Thawing • 3.2.1 20 mL of cell complete medium was added to a 50 mL of centrifuge tube and pre-heated in a 37° C. water bath for 5 minutes; • 3.2.2 the cell cryotubes were removed from the liquid nitrogen storage tank and placed on dry ice for 5-10 minutes to allow the liquid nitrogen to evaporate fully; • 3.2.3 the cell cryotubes were clamped with forceps and placed in the water bath, and shaken gently to thaw the frozen cells quickly; • 3.2.4 the thawed cells were transferred to the pre-heated cell complete medium with a pipette, centrifuged at 350 g for 5 min, then the supernatant was discarded, and the cells was resuspended by adding 10 mL of phosphate buffer; • 3.2.5 counting by cell counter, and cell viability and cell count were recorded. 3.3 Cell Labeling • 3.3.1 Cell proliferation labeling solution (CellTrace™ Violet, 1:1000 dilution) was prepared • 3.3.2 the above mixture was centrifuged at 350 g for 5 minutes, and the supernatant was discarded, then the cells (20×10^6/mL) were resuspended by adding Buffer 1, and the resuspended cells were gently blown by pipette, and an equal volume of cell proliferation labeling solution (prepared in 3.3.1) was added, and gently blown well by pipette; • 3.3.3 incubating in a 5% CO2, 37° C. cell incubator for 18 minutes; • 3.3.4 the 5-fold volume of cell complete medium was added and leaved at room temperature for 5 minutes to terminate the staining reaction; • 3.3.5 the above mixture was centrifuged at 350 g for 5 minutes, and the supernatant was discarded, then the cells were resuspended by adding 10 mL of cell complete medium, counted by cell counter, and cell viability and cell count were recorded; • 3.3.6 the above mixture was centrifuged at 350 g for 5 minutes, and the supernatant was discarded, then the corresponding volume of cell complete medium was added according to the cell counting results, and the density of the resuspended cells was 2×10^6/mL and was to be used. 3.4 Cell Proliferation Stimulation • 3.4.1 50 μL/well prepared cell suspension (1×10^5 cells/well), 50 μL of 4×PHA-M (the final concentration is 5 μg/mL), 50 μL of 4×test compound, 50 μL of cell complete medium were added to the wells of 96-well cell culture plate, and the corresponding control group was set up; (total volume of the reaction system is 200 μL) • 3.4.2 the cell culture plate was placed and incubated in a 5% CO2, 37° C. cell incubator for 48 hours. 3.5 Cell Proliferation Detection • 3.5.1 the above mixture was centrifuged at 350 g for 5 minutes and the supernatant was transferred to a new cell culture plate and stored at −80° C.; • 3.5.2 200 μL of Buffer 2 was add to the wells of the culture plate, and the above mixture was centrifuged at 350 g and the supernatant was discarded; • 3.5.3 cell dead or living staining solution (7-AAD, 1:100 dilution) was prepared with Buffer 2; • 3.5.4 100 μL/well of dead or living staining solution was added, and gently blown and mixed well by pipette, and stained at room temperature for 10 min; • 3.5.5 cell proliferation was detected by flow cytometry analyzer and analyzed by Flowjo software.

[4] = system: MDR1 (P-glycoprotein); test: Permeability evaluation on MDR1-MDCK II cell line; details: dog, MDCK-MDR1, pH 7.4
[5] = Pharmacokinetic evaluation in mice (IV and PO); format: in vivo, female Balb/c mice; details: for MRT last: read-out: MRT0-last
Description: Experiment process: 0.04 mg/mL of a clarified solution of the test compound in 5% DMSO/10% Solutol solution/85% water was injected into female Balb/c mice (overnight fasting, 7-9 weeks of age) via tail vein, with dosage of 0.2 mg/kg. 0.1 mg/mL of the test compound in 5% DMSO/10% Solutol solution/0.2% Tween80/84.8% water was administered by gavage to female Balb/c mice (overnight fasting, 7-9 weeks of age), with dosage of 1 mg/kg. About 30 μL of blood was collected from the jugular vein at 0.0833, 0.25, 0.5, 1.0, 2.0, 4.0, 8.0, 10 and 24 h and from the tail vein at 0.25, 0.5, 1.0, 2.0, 4.0, 8.0 and 24 h after administration for both groups of animals, and were placed in anticoagulation tubes with EDTA-K2, and the blood was separated by centrifugation to obtain plasma. Plasma concentrations were detected by LC-MS/MS, and relevant pharmacokinetic parameters were calculated using WinNonlin™ Version 6.3 (Pharsight, Mountain View, CA) pharmacokinetic software with a non-compartmental model linear logarithmic trapezoid method.

[6] = female, Balb/c, mouse, plasma, IV 0.2 mg/kg
[7] = female, Balb/c, mouse, plasma, PO 1 mg/kg

Chain of DHODH enzyme (Q02127 whole entry): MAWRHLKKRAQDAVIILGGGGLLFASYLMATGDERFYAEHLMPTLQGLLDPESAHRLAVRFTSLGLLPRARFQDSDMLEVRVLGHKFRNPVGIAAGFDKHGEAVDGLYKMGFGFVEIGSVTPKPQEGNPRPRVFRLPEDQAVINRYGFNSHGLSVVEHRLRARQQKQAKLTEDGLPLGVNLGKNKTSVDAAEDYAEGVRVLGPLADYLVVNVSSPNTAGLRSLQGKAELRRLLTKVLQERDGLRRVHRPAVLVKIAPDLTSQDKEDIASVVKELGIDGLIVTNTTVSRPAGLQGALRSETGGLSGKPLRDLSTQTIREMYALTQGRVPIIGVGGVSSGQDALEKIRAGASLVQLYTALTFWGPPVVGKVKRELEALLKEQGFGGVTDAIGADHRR

Structure (SMILES): CCn1c(CO)nn(-c2cc(O[C@@H](C)C(F)(F)F)c(/C(F)=C/c3cnccc3Cl)cc2F)c1=O [Compound 28]
pIC50 [1]: 8.62 | pEC50 [2]: 7.37 | pIC50 [3]: 8.08 | Papp A→B at 150 min, 2 μM [4]: 8.65 ×10⁻⁶ cm/s | Papp B→A at 150 min, 2 μM [4]: 10.7 ×10⁻⁶ cm/s | Papp at 150 min, 2 μM [4]: > 5.5 ×10⁻⁶ cm/s | efflux ratio at 150 min, 2 μM [4]: 1.24

Structure (SMILES): CCn1c(CO)nn(-c2cc(O[C@@H](C)C(F)(F)F)c(/C(F)=C/c3cccc(NC(=O)C4CC4)c3)cc2F)c1=O [Compound 29]
pIC50 [1]: 8.33

Structure (SMILES): CCn1c(CO)nn(-c2cc(O[C@@H](C)C(F)(F)F)c(/C=C/c3c(F)cccc3Cl)cc2F)c1=O [Compound 35]
pIC50 [1]: 8.59 | pEC50 [2]: 7.38

Structure (SMILES): CCn1c(CO)nn(-c2nc(O[C@@H](C)C(F)(F)F)c(/C=C/c3c(F)cccc3Cl)cc2F)c1=O [Compound 36]
pIC50 [1]: 8.82 | pEC50 [2]: 8.00 | pIC50 [3]: 8.23

Structure (SMILES): CCn1c(CO)nn(-c2cc(O[C@@H](C)C(F)(F)F)c(/C(F)=C/c3cccnc3C(F)F)cc2F)c1=O [Compound 39]
pIC50 [1]: 8.89 | pEC50 [2]: 7.38 | pIC50 [3]: 7.84 | Tlast ([5]; IV 0.2 mg/kg): 24.0 h | F ([5]; PO 1 mg/kg): 97.4% | Tlast ([5]; PO 1 mg/kg): 24.0 h | AUC(0-inf) [5, 6]: 2.24 µM·h | AUC(0-t) [5, 6]: 1.84 µM·h | clearance [5, 6]: 2.86 mL/min/kg | half-life [5, 6]: 10.4 h | MRT last [5, 6]: 7.83 h | Vd ([5]; female, Balb/c, mouse, plasma, IV 0.2 mg/kg, read-out: VdSS): 2.31 L/kg | AUC(0-inf) [5, 7]: 10.6 µM·h | AUC(0-t) [5, 7]: 8.95 µM·h | Tmax [5, 7]: 1.5 h | half-life [5, 7]: 8.86 h | MRT last [5, 7]: 8.67 h | C0 ([5]; female, Balb/c, mouse, IV 0.2 mg/kg, plasma): 419 nM | Cmax ([5]; female, Balb/c, mouse, PO 1 mg/kg, plasma): 787 nM | Papp A→B at 150 min, 2 μM [4]: 10.1 ×10⁻⁶ cm/s | Papp B→A at 150 min, 2 μM [4]: 13.9 ×10⁻⁶ cm/s | Papp at 150 min, 2 μM [4]: > 5.5 ×10⁻⁶ cm/s | efflux ratio at 150 min, 2 μM [4]: 1.37

Second part, the compound after the results:

pIC50 [1]: 8.10
Structure (SMILES): CCn1c(CO)nn(-c2cc(O[C@@H](C)C(F)(F)F)c(/C(F)=C/c3ncccc3C(F)F)cc2F)c1=O [Compound 30]

pIC50 [1]: 8.41
Structure (SMILES): CCn1c(CO)nn(-c2cc(O[C@@H](C)C(F)(F)F)c(/C(F)=C/c3cnccc3C(F)F)cc2F)c1=O [Compound 32]

pIC50 [1]: 7.50
Structure (SMILES): CCn1c(CO)nn(-c2cc(O[C@@H](C)C(F)(F)F)c(/C=C/c3cccnc3Cl)cc2F)c1=O [Compound 37]

pIC50 [1]: 7.58
Structure (SMILES): CCn1c(CO)nn(-c2cc(O[C@@H](C)C(F)(F)F)c(/C=C/c3cccnc3C(F)F)cc2F)c1=O [Compound 38]

pIC50 [1]: 8.14
Structure (SMILES): CCn1c(CO)nn(-c2cc(O[C@@H](C)C(F)(F)F)c(/C(F)=C/c3cccnc3)cc2F)c1=O [Compound 40]
